Data on 21 compounds can be found in ChEMBL document CHEMBL3784917, “Recent Progress in Histone Demethylase Inhibitors” (J Med Chem, 2016).

SMILES strings stand for the structures. pIC50: −log10 of the molar value. Some results are limits rather than exact numbers.

Assay [1] addresses T1, Lysine-specific demethylase 5A (Homo sapiens, UniProt P29375).
In assay [2] the target is T2, Lysine-specific demethylase 5B (Homo sapiens, UniProt Q9UGL1).
For assay [3], the target named is T1, Lysine-specific demethylase 5A. Nature of the assay: biochemical.
The target in assay [4] is T2, Lysine-specific demethylase 5B. The experiment in a line: biochemical.
The target of assay [5] is T3, Lysine-specific demethylase 4C (Homo sapiens, UniProt Q9H3R0).
T3 sequence (Q9H3R0 whole entry): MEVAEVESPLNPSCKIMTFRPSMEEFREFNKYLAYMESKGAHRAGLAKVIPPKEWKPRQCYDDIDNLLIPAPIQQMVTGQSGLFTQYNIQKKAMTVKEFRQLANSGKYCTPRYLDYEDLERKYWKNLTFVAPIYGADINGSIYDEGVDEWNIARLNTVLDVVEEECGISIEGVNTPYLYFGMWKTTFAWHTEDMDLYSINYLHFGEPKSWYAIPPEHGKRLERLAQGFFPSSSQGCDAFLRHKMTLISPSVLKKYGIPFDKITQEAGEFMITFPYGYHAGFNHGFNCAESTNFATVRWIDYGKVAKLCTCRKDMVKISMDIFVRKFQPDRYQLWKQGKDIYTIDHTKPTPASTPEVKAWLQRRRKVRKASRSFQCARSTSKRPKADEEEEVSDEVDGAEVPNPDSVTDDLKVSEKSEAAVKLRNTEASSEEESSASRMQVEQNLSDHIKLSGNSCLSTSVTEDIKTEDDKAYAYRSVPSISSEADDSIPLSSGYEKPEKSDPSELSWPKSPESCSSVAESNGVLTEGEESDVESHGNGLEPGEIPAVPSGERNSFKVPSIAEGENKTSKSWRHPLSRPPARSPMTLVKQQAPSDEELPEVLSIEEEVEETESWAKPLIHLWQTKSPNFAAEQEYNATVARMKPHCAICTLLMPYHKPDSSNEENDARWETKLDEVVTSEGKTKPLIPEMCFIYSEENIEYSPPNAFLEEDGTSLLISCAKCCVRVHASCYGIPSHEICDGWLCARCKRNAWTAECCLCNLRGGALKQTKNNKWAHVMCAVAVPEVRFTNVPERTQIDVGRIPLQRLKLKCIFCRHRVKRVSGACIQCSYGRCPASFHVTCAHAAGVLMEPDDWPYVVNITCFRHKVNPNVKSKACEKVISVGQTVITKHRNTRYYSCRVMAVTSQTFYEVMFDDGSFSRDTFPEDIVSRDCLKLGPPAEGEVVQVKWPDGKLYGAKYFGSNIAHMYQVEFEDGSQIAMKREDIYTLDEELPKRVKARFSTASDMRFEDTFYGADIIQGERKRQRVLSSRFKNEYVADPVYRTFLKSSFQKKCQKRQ
Nature of the assay: biochemical.

Assay [6] deals with T4, Lysine-specific demethylase 2B (Homo sapiens, UniProt Q8NHM5).
T4 sequence (Q8NHM5 whole entry): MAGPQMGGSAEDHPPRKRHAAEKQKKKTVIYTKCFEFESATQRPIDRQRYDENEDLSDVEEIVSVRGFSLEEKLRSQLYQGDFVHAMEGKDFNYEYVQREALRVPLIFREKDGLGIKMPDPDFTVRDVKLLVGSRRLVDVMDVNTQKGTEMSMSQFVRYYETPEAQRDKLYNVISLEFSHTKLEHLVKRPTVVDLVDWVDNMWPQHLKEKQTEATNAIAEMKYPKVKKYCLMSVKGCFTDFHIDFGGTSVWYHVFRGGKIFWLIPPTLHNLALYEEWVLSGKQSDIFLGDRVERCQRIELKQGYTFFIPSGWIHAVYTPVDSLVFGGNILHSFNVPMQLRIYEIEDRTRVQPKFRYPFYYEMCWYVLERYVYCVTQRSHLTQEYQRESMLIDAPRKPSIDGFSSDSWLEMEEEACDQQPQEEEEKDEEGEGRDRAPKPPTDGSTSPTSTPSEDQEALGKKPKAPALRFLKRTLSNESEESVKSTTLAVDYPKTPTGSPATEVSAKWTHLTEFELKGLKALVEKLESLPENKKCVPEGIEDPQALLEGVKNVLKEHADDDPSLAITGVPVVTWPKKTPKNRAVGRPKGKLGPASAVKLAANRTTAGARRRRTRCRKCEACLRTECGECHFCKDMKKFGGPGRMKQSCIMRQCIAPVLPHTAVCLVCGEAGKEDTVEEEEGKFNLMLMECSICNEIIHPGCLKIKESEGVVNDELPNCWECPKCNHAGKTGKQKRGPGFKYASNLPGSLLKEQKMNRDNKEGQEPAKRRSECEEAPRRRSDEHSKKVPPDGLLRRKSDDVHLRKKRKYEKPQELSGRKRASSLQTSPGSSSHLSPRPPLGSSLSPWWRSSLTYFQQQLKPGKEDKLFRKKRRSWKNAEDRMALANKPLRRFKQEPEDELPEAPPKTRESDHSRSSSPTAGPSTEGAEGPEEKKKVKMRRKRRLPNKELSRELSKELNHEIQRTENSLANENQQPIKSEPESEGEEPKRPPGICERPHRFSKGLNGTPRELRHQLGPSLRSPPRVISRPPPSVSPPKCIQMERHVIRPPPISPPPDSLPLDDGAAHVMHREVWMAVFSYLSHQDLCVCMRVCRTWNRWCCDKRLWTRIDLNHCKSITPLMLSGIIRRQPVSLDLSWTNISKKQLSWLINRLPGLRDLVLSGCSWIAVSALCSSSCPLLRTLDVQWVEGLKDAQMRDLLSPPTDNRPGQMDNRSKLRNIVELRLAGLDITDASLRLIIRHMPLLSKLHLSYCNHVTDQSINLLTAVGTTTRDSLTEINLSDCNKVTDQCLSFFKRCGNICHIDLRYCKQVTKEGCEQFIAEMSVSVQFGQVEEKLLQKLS
The experiment in a line: biochemical.

The next assay is described as follows: cells. The conditions noted are these: Homo sapiens, KYSE-150, 168 h.
Assay [7] has as its target T3, Lysine-specific demethylase 4C.
The target of assay [8] is T2, Lysine-specific demethylase 5B. The source holds these as a separate data set.
Assay [9] concerns the target Lysine-specific demethylase 6A (Homo sapiens, UniProt O15550).
Assay [10] addresses T5, Lysine-specific demethylase 4A (Homo sapiens, UniProt O75164).
T5 sequence (O75164 whole entry): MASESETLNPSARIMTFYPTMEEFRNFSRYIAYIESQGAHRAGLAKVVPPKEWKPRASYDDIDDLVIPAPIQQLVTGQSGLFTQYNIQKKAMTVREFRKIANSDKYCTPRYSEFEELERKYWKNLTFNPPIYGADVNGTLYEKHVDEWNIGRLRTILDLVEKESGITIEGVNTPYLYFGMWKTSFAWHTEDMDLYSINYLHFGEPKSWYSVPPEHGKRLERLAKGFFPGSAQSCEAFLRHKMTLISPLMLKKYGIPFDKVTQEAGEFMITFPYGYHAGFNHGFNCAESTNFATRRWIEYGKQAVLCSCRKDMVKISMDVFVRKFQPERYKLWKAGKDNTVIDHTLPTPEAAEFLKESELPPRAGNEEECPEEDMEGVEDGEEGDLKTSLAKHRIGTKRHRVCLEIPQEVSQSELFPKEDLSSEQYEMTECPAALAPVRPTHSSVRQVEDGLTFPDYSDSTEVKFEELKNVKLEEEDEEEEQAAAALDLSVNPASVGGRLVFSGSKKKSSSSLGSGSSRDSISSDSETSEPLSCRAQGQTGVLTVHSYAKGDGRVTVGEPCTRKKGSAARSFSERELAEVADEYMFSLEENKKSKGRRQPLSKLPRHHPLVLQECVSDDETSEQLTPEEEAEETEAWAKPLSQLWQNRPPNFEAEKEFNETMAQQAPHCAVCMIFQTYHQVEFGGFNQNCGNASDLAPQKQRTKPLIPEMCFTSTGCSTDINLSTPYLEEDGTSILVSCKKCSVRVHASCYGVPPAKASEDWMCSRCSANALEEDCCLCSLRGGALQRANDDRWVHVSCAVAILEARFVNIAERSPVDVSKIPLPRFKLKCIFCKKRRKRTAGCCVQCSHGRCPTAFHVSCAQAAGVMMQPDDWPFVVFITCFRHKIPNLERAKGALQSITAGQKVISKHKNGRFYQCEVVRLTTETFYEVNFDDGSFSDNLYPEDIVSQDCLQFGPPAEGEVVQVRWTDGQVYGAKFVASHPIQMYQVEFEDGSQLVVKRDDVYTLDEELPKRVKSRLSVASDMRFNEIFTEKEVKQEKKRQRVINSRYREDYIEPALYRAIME

T2 sequence (Q9UGL1 whole entry): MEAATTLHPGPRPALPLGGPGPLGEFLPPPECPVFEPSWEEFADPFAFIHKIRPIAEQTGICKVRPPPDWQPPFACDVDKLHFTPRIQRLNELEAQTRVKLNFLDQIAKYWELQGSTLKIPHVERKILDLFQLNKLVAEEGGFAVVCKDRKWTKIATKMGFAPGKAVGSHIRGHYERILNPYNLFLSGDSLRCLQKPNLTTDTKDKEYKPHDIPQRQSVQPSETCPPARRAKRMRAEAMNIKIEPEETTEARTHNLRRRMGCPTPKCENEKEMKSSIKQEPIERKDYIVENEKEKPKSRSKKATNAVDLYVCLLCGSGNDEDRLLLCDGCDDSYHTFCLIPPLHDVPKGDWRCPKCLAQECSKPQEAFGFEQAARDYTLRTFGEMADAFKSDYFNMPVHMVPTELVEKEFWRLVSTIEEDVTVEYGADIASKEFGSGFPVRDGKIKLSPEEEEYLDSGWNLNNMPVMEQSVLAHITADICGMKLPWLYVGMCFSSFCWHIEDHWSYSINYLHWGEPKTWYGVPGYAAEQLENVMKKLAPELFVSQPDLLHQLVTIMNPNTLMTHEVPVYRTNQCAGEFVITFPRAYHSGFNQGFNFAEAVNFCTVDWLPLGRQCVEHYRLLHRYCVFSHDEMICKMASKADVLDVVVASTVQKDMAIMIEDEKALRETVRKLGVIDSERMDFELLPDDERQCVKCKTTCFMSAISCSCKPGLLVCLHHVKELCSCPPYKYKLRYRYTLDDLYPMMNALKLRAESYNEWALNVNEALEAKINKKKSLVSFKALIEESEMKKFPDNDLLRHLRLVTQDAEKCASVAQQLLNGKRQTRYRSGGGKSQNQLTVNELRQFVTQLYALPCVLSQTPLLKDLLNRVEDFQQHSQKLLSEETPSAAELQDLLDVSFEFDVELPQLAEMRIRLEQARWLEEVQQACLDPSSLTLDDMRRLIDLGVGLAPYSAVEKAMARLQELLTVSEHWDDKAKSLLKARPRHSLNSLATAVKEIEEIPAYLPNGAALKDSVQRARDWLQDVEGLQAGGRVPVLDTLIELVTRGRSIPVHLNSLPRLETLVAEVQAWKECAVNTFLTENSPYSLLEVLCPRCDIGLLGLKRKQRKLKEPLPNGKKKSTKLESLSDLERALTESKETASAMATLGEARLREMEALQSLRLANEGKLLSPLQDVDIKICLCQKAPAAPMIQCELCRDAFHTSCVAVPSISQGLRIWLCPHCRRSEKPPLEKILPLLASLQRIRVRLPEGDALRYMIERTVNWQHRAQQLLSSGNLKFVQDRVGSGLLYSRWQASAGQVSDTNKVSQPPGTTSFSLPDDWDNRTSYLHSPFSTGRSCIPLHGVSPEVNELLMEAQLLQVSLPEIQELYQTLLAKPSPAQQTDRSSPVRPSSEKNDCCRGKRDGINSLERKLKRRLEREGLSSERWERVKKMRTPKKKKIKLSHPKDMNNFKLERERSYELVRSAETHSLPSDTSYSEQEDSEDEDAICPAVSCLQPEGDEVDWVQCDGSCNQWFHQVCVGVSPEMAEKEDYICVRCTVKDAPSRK
T1 sequence (P29375 whole entry): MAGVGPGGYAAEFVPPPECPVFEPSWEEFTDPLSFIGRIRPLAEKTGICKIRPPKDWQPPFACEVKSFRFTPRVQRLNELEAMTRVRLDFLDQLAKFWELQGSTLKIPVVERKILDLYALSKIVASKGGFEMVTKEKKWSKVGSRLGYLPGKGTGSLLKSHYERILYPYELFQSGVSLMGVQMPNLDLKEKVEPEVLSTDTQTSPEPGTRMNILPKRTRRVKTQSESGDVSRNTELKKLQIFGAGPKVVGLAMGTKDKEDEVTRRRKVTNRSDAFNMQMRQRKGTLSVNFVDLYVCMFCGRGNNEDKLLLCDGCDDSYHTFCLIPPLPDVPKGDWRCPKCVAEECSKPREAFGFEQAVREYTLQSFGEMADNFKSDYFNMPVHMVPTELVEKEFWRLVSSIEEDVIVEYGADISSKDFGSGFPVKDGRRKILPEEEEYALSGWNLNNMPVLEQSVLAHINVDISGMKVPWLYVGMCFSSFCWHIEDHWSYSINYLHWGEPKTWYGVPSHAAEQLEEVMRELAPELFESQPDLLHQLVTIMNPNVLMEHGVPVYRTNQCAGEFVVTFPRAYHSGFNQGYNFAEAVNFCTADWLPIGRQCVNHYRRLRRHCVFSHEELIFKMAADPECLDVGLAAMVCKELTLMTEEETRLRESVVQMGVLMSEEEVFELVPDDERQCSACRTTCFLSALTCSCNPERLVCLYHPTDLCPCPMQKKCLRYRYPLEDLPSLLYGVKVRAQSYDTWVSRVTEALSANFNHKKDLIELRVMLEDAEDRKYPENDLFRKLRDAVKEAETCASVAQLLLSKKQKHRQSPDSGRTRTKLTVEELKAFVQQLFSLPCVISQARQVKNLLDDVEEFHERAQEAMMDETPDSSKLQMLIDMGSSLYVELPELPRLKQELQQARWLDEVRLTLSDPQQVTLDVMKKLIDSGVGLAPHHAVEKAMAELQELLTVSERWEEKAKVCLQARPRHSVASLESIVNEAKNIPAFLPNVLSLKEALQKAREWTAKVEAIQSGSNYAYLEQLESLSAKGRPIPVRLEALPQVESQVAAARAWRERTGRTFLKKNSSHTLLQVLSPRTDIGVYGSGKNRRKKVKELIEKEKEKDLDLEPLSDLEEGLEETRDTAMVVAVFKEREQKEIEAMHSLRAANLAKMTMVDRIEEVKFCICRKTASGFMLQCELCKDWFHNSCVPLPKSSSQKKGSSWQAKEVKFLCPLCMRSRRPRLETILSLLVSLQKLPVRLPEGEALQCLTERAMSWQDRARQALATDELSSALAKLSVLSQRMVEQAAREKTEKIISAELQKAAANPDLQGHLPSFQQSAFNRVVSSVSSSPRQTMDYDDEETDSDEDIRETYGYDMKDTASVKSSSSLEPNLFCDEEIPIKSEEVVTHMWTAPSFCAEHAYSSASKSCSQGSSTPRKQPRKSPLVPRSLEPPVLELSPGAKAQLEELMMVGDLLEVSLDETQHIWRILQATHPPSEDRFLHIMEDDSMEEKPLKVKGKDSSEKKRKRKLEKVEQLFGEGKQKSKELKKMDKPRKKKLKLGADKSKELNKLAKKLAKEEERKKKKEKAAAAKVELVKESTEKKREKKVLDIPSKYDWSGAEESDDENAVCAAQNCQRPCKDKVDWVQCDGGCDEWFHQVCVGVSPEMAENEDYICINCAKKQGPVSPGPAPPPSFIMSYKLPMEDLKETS
Sequence of Lysine-specific demethylase 6A (O15550 whole entry): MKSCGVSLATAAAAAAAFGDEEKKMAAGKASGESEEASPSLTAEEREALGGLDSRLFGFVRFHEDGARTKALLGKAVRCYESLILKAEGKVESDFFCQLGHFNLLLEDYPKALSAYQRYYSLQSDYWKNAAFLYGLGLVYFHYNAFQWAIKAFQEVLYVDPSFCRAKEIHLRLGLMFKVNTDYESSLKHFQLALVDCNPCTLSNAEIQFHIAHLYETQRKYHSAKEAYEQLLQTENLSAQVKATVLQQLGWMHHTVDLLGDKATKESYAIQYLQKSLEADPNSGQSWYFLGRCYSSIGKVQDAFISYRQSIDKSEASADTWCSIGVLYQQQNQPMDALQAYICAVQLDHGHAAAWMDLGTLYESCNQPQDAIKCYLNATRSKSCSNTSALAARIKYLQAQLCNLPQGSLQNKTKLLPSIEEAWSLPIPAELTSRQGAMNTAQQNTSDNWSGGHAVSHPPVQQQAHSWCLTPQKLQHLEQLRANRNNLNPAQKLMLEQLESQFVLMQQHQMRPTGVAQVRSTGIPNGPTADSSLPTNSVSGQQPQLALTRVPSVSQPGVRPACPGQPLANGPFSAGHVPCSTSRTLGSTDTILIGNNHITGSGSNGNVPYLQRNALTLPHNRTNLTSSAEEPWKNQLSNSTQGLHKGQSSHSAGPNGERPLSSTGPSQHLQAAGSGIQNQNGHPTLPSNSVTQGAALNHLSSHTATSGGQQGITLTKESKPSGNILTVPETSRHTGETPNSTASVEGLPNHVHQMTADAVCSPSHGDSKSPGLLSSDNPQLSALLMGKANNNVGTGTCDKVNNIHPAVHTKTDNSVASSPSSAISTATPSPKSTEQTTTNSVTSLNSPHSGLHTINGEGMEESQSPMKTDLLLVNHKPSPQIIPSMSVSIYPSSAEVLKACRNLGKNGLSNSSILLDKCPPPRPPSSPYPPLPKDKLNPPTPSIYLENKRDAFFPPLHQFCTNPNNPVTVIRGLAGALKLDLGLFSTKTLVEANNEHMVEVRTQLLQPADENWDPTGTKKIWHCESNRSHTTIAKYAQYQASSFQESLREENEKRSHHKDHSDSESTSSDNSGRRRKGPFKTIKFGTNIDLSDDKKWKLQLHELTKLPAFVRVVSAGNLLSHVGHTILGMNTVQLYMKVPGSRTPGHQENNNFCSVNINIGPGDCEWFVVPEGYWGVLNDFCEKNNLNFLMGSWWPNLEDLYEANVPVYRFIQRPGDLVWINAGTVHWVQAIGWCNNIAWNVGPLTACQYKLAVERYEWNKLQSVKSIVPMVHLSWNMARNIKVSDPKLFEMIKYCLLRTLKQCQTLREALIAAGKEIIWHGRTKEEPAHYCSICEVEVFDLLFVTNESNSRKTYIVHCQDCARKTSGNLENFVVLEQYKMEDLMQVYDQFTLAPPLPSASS

Regarding `Cn1cnc(-c2cc(C(=O)O)ccn2)c1-c1ccc(OCC2CC2)cc1`, the pIC50 (as a rule, the IC50 on a negative log10 scale, so that one unit is a factor of ten) in assay [1] was 6.00; in assay [2], 6.00; in assay [3] it was over 7.00; in [4], over 7.00; in assay [5] it was 7.00; in assay [6], 7.00.

With `O=C(O)c1ccnc(-n2ncc(CCO)c2OCc2ccc(F)cc2)c1`, the values for the pIC50 in assay [3], in [4] and in [5] were over 7.00, over 7.00 and 6.00, respectively.

In the assay “cells”, `COC(=O)c1ccnc2cc(OCc3ccc(Cl)c(OCC4CC4)c3)[nH]c12` showed a pIC50 of over 7.00.

For `O=C(O)c1cnnc(CNCC(=O)N2CCCCC2)c1`, the values for the pIC50 in [7], in assay [8] and in assay [9] were over 6.60, over 6.60 and under 5.60, respectively.

Take `O=C(O)c1ccnc2cc(OCc3ccc(Cl)c(OCC4CC4)c3)[nH]c12`: the pIC50 in [10] was 6.00; in [3] it was 7.00; in assay [4], over 7.00; in assay [5] it was over 7.00.

Compound `COC(=O)c1ccnc2cc(OCc3ccc(Cl)c(OC)c3)[nH]c12` showed a pIC50 in the assay “cells” of over 7.00.

For the compound `COC(=O)c1ccnc(-n2nccc2OCc2ccc(Cl)cc2)c1`, the pIC50 in assay [1] and in assay [2] was 7.00 in each case.

For `COC(=O)c1ccnc2cc(OCc3ccc(Cl)c(OC(F)(F)F)c3)[nH]c12`, the pIC50 in “cells” was over 7.00.

As for `O=C(O)c1ccnc(CNCc2nccn2C/C=C/c2ccccc2)c1`, the pIC50 in assay [7] was under 5.60; in [8] it was over 6.60; in assay [9], under 5.60.

In “cells”, `CNC(=O)c1ccnc2cc(OCc3ccc(Cl)c(OC(F)(F)F)c3)[nH]c12` gave a pIC50 of over 7.00.

With `O=C(O)c1ccnc(-n2nccc2OCc2ccc(Cl)cc2)c1`, the pIC50 is 7.00 in assay [1]; 7.00 in [2]; over 7.00 in assay [3]; over 7.00 in assay [4]; over 7.00 in [5].

With `COc1cc(COc2cc3nccc(C(=O)O)c3[nH]2)ccc1Cl`, the pIC50 in [10] is 7.00; in assay [3] it was 6.00; in [4], 6.00; in [5], over 7.00.

Regarding `Cn1cnc(-c2cc(-c3nn[nH]n3)ccn2)c1`, the pIC50 was under 5.00 in [10]; under 5.00 in assay [1]; under 5.00 in assay [2]; 7.00 in [3]; 7.00 in [4]; under 5.00 in assay [5]. In assay [6], this compound gave a pIC50 of over 7.00.

Turning to `Cn1cnc(-c2cc(C(=O)O)ccn2)c1`, the pIC50 is over 7.00 in assay [10]; under 5.00 in [1]; under 5.00 in assay [2]; over 7.00 in assay [3]; over 7.00 in assay [4]; over 7.00 in assay [5]. In [6], this compound had a pIC50 of over 7.00.

For the compound `O=C(O)c1ccnc2cc(OCc3ccc(Cl)c(OC(F)(F)F)c3)[nH]c12`, the negative-log IC50 (pIC50) in [10] is 7.00; in assay [3], 7.00; in assay [4] it was over 7.00; in [5], over 7.00.

With `COc1ccc(-c2c(-c3cc(C(=O)O)ccn3)ncn2C)cc1`, the pIC50 in assay [1] was 6.00; in [2] it was 6.00; in [3] it was 7.00; in assay [4] it was 7.00; in assay [5], 6.00; in assay [6], 7.00.

As for `O=C(O)c1ccncc1NCC12CC3CC(CC(C3)C1)C2`, the pIC50 was under 5.00 in “cells”, 7.00 in assay [3], 7.00 in [4] and over 7.00 in [5].

In the case of `Cn1nc(Nc2cnccc2C(=O)O)c2cccnc21`, the pIC50 is 7.00 in [1]; 7.00 in [2]; over 7.00 in assay [3]; over 7.00 in assay [4]; 7.00 in assay [5].

Consider `Cc1cc(Cl)ccc1COc1ccnn1-c1cc(C(=O)O)ccn1`, for which the pIC50 was over 7.00 in assay [1]; over 7.00 in assay [2]; over 7.00 in [3]; over 7.00 in [4]; 7.00 in [5]; 7.00 in [6].

As for `CC(C)Cn1nc(Nc2cnccc2C(=O)NC#N)c2cc(F)ccc21`, the pIC50 in [3] is over 7.00; in assay [4] it was over 7.00; in [5], 6.00.

In the case of `O=C(O)c1ccncc1Nc1nn(C2CCCC2)c2ccc(F)cc12`, the pIC50 in assay [1] is 7.00; in [2], 7.00; in assay [3], over 7.00; in [4], over 7.00; in assay [5], 7.00.
